From US20170182090A1, “Sulfate Salt Solution Laxative Compositions and Methods of Use Thereof” (Braintree Laboratories, Inc., priority 2014, published 2017)
Like-named read-outs stand apart in the source and are kept apart here. Values belong to the compound of their own block, whether it stands above or below them.

Key:
constipation = conditions: in vivo; cited from earlier work
normal volunteers [1] = assay: Single dose laxative study in normal volunteers (Example 1, Study 008-211): stool output, BM frequency, time to first BM, stool water; type: in vivo, human
Method: This single center study evaluated sulfate salt compositions containing 43.8 millimoles (mmol) sulfate salts (4.2 g total sulfate) or 80 mmol sulfate salts (7.7 g total sulfate) as compared to 10 mg bisacodyl for efficacy to induce a rapid, controlled bowel movement without significant gains or losses of electrolytes. Normal volunteers were given a single dose of laxative in an in-patient setting during which all stool and urine were collected for 24 hours after laxative administration. Efficacy was based on total stool output, bowel movement frequency and time to first bowel movement (BM). A time to first BM of less than three hours was considered ideal. Stool was analyzed to determine the gain or loss of electrolytes. Safety was assessed through the collection of adverse event data and analysis of urine electrolyte composition.
Normal male and female volunteers in this single center study were enrolled to receive a single dose of a sulfate laxative formulations or bisacodyl in an open-label, non-randomized fashion.
Enrolled study subjects received a single dose of a formulation of sulfate salts (dissolved in 120 ml water) and separately, 10 mg bisacodyl, in an open-label, non-randomized fashion. The sulfate preparations, shown below, were compounded by the investigator.
After an eight hour (overnight) fast, study subjects ingested either a single dose of sulfate laxative (containing sodium sulfate and potassium sulfate) or, on a different day, bisacodyl. Sulfate was initially given with a 1:1 molar ratio sodium to potassium at a dose of 43.8 mmole sulfate salts (4.2 g total sulfate) sulfate to three study subjects. The dose was later increased to 80 mmole sulfate salts (7.7 g total sulfate) in one study subject. The 80 mmol sulfate salt formulation was then changed to a 3:1 sodium to potassium molar ratio for the final five study subjects. Bisacodyl was given at a dose of 10 mg.
Stool and urine were collected for 24 hours following laxative ingestion.
(§1) Efficacy was assessed via quantitative measurements of stool weight, bowel movement frequency and time to first BM. All stools were collected, weighed and subsequently analyzed for water and electrolyte composition.

normal volunteers [2] = assay: Stool electrolyte output and balance, Example 1; type: in vivo, human; conditions: bisacodyl 10 mg
Method: as §1
(§2) Laxative related adverse events were assessed via subject completion of a study specific questionnaire. Specifically, subjects rated their experience with respect to abdominal cramping, abdominal bloating, abdominal pain, gas, nausea, and vomiting. Stool was analyzed for water and electrolyte composition.
Stools collected from study subjects were analyzed for sodium, potassium and sulfate. The data for the 80 mmol sulfate salt formulation and 10 mg bisacodyl are discussed here. The total electrolyte content of the stool was compared with the total electrolyte quantity ingested from the test preparations.
The 80 mmol sulfate salt formulation was administered initially as a formula with a 1:1 sodium to potassium ratio on a molar basis (1 study subject; DC). Based on the stool analysis results from this subject (see below) the formulation was modified to a 3:1 sodium to potassium ratio for the remaining 5 study subjects. Stool electrolyte balance results are summarized below in Tables 6 and 7.

normal volunteers [3] = assay: Adverse events and symptoms, Example 1; type: in vivo, human; conditions: bisacodyl 10 mg single dose
Method: as §2

normal volunteers [4] = conditions: bisacodyl 20 mg, n=11, cited from earlier work
[5] = bisacodyl 10 mg single dose, mean, n=7
[6] = bisacodyl 10 mg single dose, n=7
[7] = bisacodyl 10 mg, 24 hours following laxative ingestion

Structure (SMILES): CCCCC(F)(F)[C@@]1(O)CC[C@H]2[C@@H](CC(=O)[C@@H]2CCCCCCC(=O)O)O1 [Amitiza]
success rate (constipation): 30%

potassium loss (normal volunteers [2]): about 2 grams
sodium losses (normal volunteers [2]): 1.2 grams
Structure (SMILES): CC(=O)Oc1ccc(C(c2ccc(OC(C)=O)cc2)c2ccccn2)cc1 [Bisacodyl]
Stool Water (normal volunteers [1]; bisacodyl 10 mg single dose, mean (SD), n=7): 85.8% (2.4)
BM Frequency (normal volunteers [1]; [5]): 2.9 #/12 hrs
Stool Output (normal volunteers [1]; [5]): 681 g/12 hrs
Time to first BM (normal volunteers [1]; [5]): 4.4 h
Time to first BM (normal volunteers [1]; bisacodyl 10 mg single dose, mean, n=7, listed as bisacodyl): about 5 hrs
Subjects with BM <3 hrs, number (normal volunteers [1]; [6]): 1
Subjects with BM <3 hrs, percent (normal volunteers [1]; [6]): (14%)
Subjects with BM <3 hrs, percent (normal volunteers [1]; bisacodyl 10 mg single dose, n=7, listed as bisacodyl): 14%
bowel movements, average (normal volunteers [1]; [7]): about 3
stool, average (normal volunteers [1]; [7]): ~700 grams
adverse events, gastrointestinal symptoms (normal volunteers [3]): one bisacodyl volunteer reported severe cramping
BM Frequency (normal volunteers [4]; mean): 5.4 #/12hrs
Stool Output (normal volunteers [4]; mean): 757 g/12hrs
Time to first BM (normal volunteers [4]; mean): 3.2 h
# with BM <3 hrs, number (normal volunteers [4]): 5
# with BM <3 hrs, percent (normal volunteers [4]): (45%)
# with BM <3 hrs, percent (normal volunteers [4]; listed as bisacodyl): 45%

Structure (SMILES): C=CCN1CC[C@]23c4c5ccc(O)c4O[C@H]2[C@@H](OCCOCCOCCOCCOCCOCCOCCOC)CC[C@@]3(O)[C@H]1C5.O=C(O)C(=O)O [Movantik]
success rate (constipation): approximately 45%

Structure (SMILES): C[N+]1(CC2CC2)CC[C@]23c4c5ccc(O)c4O[C@H]2C(=O)CC[C@@]3(O)[C@H]1C5 (stereo partly shown) [Relistor]
success rate (constipation): 60%
